Measurements taken from PMC6718736, “Validation of in vitro methods for human cytochrome P450 enzyme induction: Outcome of a multi-laboratory study” (Toxicology in Vitro, 2019).
Entries after “also recorded” stand apart in the source; their conditions may differ. Where a name gives a salt, the structure may show the parent alone. Read-outs that look alike come from different tables or passages of the source.

What was measured:
[1] = system: CYP3A4; experiment: CYP3A4 enzyme induction assay in cryopreserved primary human hepatocytes (PHH); conditions: for Induction in vitro / Prediction in vivo inducer: CYP3A4, PHH; for Assigned classification CYP3A4: PHH
[2] = system: CYP; conditions: CYP isoforms induced; ref Abadie et al. (2009), Richert et al. (2010), Preissner et al. (2010), Hoffmann et al. (2014); cited from earlier work
[3] = system: CYP3A4; experiment: CYP3A4 enzyme induction assay in cryopreserved HepaRG cells (midazolam probe, LC/MS); assay type: in vitro ADME, human; conditions: for Assigned classification CYP3A4: HepaRG; as to Assigned classification CYP3A4: key: 1=Positive=inducer; 0=Negative=non-inducer
[4] = system: CYP1A2; experiment: CYP1A2 enzyme induction assay in cryopreserved primary human hepatocytes (PHH); assay type: in vitro ADME; conditions: for Prediction in vivo inducer / Induction in vitro: CYP1A2, PHH; for Prediction in vivo inducer: Cmax/F2 >0.5 criterion; for Induction in vitro: positive in one donor in each of the three laboratories; for Assigned classification CYP1A2: PHH;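 as to Assigned classification CYP1A2: code 1 means positive inducer and 0 means non-inducer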
[5] = system: CYP1A2; experiment: CYP1A2 enzyme induction assay in cryopreserved HepaRG cells (phenacetin probe, LC/MS); assay type: in vitro ADME, human; conditions: for Prediction in vivo inducer: Cmax/F2 >0.5 criterion; for Induction in vitro: positive in one batch in each of the three laboratories; for Assigned classification CYP1A2: HepaRG; as to Assigned classification CYP1A2: key: 1=Positive=inducer; 0=Negative=non-inducer
[6] = system: CYP3A4; conditions: cited from earlier work; for Induction in vivo: CYP3A4, human in vivo reference classification (Table 11)
[7] = system: CYP1A2; conditions: cited from earlier work; for Induction in vivo: CYP1A2, human, ref Table 1
[8] = system: CYP2B6; experiment: CYP2B6 enzyme induction assay in cryopreserved HepaRG cells (bupropion probe, LC/MS); assay type: in vitro ADME, human; conditions: for Prediction in vivo inducer: Cmax/F2 >0.5 criterion; for Induction in vitro: positive in one batch in each of the three laboratories; for Assigned classification CYP2B6: HepaRG; as to Assigned classification CYP2B6: key: 1=Positive=inducer; 0=Negative=non-inducer
[9] = cited from earlier work
[10] = system: CYP2B6; conditions: cited from earlier work
[11] = system: CYP2B6; experiment: CYP2B6 enzyme induction assay in cryopreserved primary human hepatocytes (PHH); assay type: in vitro ADME; conditions: for Assigned classification CYP2B6: PHH;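 as to Assigned classification CYP2B6: code 1 means positive inducer and 0 means non-inducer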
[12] = human in vivo, CYP named without remark = induced, ref references in the cell, Washington University database, Hoffmann et al. (2014), Pelkonen et al. (2008), Hukkanen et al. (2012)
[13] = human in vivo plasma concentration, normal dose
[14] = human in vivo, normal dose (Table 10)
[15] = CYP2B6, human in vivo reference classification
[16] = CYP2B6, PHH, Cmax/F2 >0.5 criterion

## NC(=O)N1c2ccccc2C=Cc2ccccc21 [Carbamazepine]
[1]
  Induction in vitro: Yes
  Prediction in vivo inducer: Yes
[1]; Lab 1, batch 0 6 A
  Assigned classification CYP3A4: 1
[1]; Lab 1, batch 4 0 8
  Assigned classification CYP3A4: 1
[1]; Lab 1, batch 8 0 8
  Assigned classification CYP3A4: 1
[1]; Lab 2, batch 0 6 A
  Assigned classification CYP3A4: 1
[1]; Lab 2, batch 4 0 8
  Assigned classification CYP3A4: 1
[1]; Lab 2, batch 8 0 8
  Assigned classification CYP3A4: 1
[1]; Lab 3, batch 0 6 A
  Assigned classification CYP3A4: 1
[1]; Lab 3, batch 4 0 8
  Assigned classification CYP3A4: 1
[1]; Lab 3, batch 8 0 8
  Assigned classification CYP3A4: 1
[2]
  CYP induction in vitro (human hepatocytes): CYP1A2, CYP2B6, CYP3A4
[3]; CYP3A4, HepaRG cells
  F2: 18.8 µM
  Induction in vitro: Yes
  Prediction in vivo inducer: Yes
[3]; Lab 1, batch 20
  Assigned classification CYP3A4: 1
[3]; Lab 1, batch 35
  Assigned classification CYP3A4: 1
[3]; Lab 1, batch 36
  Assigned classification CYP3A4: 0
[3]; Lab 2, batch 20
  Assigned classification CYP3A4: 1
[3]; Lab 2, batch 35
  Assigned classification CYP3A4: 1
[3]; Lab 2, batch 36
  Assigned classification CYP3A4: 1
[3]; Lab 3, batch 20
  Assigned classification CYP3A4: 1
[3]; Lab 3, batch 35
  Assigned classification CYP3A4: 1
[3]; Lab 3, batch 36
  Assigned classification CYP3A4: 1
[4]
  Prediction in vivo inducer: No
  Induction in vitro: No
[4]; listed as carbamazepine
  Prediction in vivo inducer: non-inducer; also recorded: missed the in vivo prediction
[4]; Lab 1, batch 0 6 A
  Assigned classification CYP1A2: 0
[4]; Lab 1, batch 4 0 8
  Assigned classification CYP1A2: 1
[4]; Lab 1, batch 8 0 8
  Assigned classification CYP1A2: 0
[4]; Lab 2, batch 0 6 A
  Assigned classification CYP1A2: 0
[4]; Lab 2, batch 4 0 8
  Assigned classification CYP1A2: 0
[4]; Lab 2, batch 8 0 8
  Assigned classification CYP1A2: 0
[4]; Lab 3, batch 0 6 A
  Assigned classification CYP1A2: 1
[4]; Lab 3, batch 4 0 8
  Assigned classification CYP1A2: 0
[4]; Lab 3, batch 8 0 8
  Assigned classification CYP1A2: 0
[5]; CYP1A2, HepaRG cells
  Prediction in vivo inducer: Yes
  Induction in vitro: Yes
[5]; CYP1A2, HepaRG cells, in vitro concentration producing 2-fold induction
  F2: 56.4 µM
[5]; Lab 1, batch 20
  Assigned classification CYP1A2: 1
[5]; Lab 1, batch 35
  Assigned classification CYP1A2: 1
[5]; Lab 1, batch 36
  Assigned classification CYP1A2: 1
[5]; Lab 2, batch 20
  Assigned classification CYP1A2: 1
[5]; Lab 2, batch 35
  Assigned classification CYP1A2: 1
[5]; Lab 2, batch 36
  Assigned classification CYP1A2: 1
[5]; Lab 3, batch 20
  Assigned classification CYP1A2: 0
[5]; Lab 3, batch 35
  Assigned classification CYP1A2: 1
[5]; Lab 3, batch 36
  Assigned classification CYP1A2: 1
[6]
  Induction in vivo: Yes
[6]; [12]
  CYP induction in vivo literature reference: CYP3A4: CYP 3A4
[7]
  Induction in vivo: Yes
[7]; [12]
  CYP induction in vivo literature reference: CYP1A2: CYP 1A2
[8]; CYP2B6, HepaRG cells
  Prediction in vivo inducer: Yes
  Induction in vitro: Yes
[8]; CYP2B6, HepaRG cells, listed as carbamazepine
  Prediction in vivo inducer: correctly classified
[8]; CYP2B6, HepaRG cells, in vitro concentration producing 2-fold induction
  F2: 18.8 µM
[8]; Lab 1, batch 20
  Assigned classification CYP2B6: 1
[8]; Lab 1, batch 35
  Assigned classification CYP2B6: 1
[8]; Lab 1, batch 36
  Assigned classification CYP2B6: 1
[8]; Lab 2, batch 20
  Assigned classification CYP2B6: 1
[8]; Lab 2, batch 35
  Assigned classification CYP2B6: 1
[8]; Lab 2, batch 36
  Assigned classification CYP2B6: 1
[8]; Lab 3, batch 20
  Assigned classification CYP2B6: 1
[8]; Lab 3, batch 35
  Assigned classification CYP2B6: 1
[8]; Lab 3, batch 36
  Assigned classification CYP2B6: 1
[9]; [13]
  Cmax: 39 µM
[9]; [14]
  Cmax: 39 µM
[10]; [15]
  Induction in vivo: Yes
[10]; CYP2B6, human, ref Table 1
  Induction in vivo: Yes
[10]; [12]
  CYP induction in vivo literature reference: CYP2B6: CYP2B6
[11]; CYP2B6, PHH
  F2: 2.09 to 6.27 µM
  Induction in vitro: Yes
  Prediction in vivo inducer: Yes
[11]; [16]
  Prediction in vivo inducer: positive
[11]; Lab 1, batch 0 6 A
  Assigned classification CYP2B6: 1
[11]; Lab 1, batch 4 0 8
  Assigned classification CYP2B6: 1
[11]; Lab 1, batch 8 0 8
  Assigned classification CYP2B6: 0
[11]; Lab 2, batch 0 6 A
  Assigned classification CYP2B6: 1
[11]; Lab 2, batch 4 0 8
  Assigned classification CYP2B6: 1
[11]; Lab 2, batch 8 0 8
  Assigned classification CYP2B6: 0
[11]; Lab 3, batch 0 6 A
  Assigned classification CYP2B6: 1
[11]; Lab 3, batch 4 0 8
  Assigned classification CYP2B6: 1
[11]; Lab 3, batch 8 0 8
  Assigned classification CYP2B6: 0

## CC(C)NCC(O)c1ccc(NS(C)(=O)=O)cc1 (centres unmarked) [Sotalol hydrochloride]
[1]
  Induction in vitro: No
  Prediction in vivo inducer: No
[1]; Lab 1, batch 0 6 A
  Assigned classification CYP3A4: 0
[1]; Lab 1, batch 4 0 8
  Assigned classification CYP3A4: 0
[1]; Lab 1, batch 8 0 8
  Assigned classification CYP3A4: 0
[1]; Lab 2, batch 0 6 A
  Assigned classification CYP3A4: 0
[1]; Lab 2, batch 4 0 8
  Assigned classification CYP3A4: 0
[1]; Lab 2, batch 8 0 8
  Assigned classification CYP3A4: 0
[1]; Lab 3, batch 0 6 A
  Assigned classification CYP3A4: 0
[1]; Lab 3, batch 4 0 8
  Assigned classification CYP3A4: 0
[1]; Lab 3, batch 8 0 8
  Assigned classification CYP3A4: 0
[2]
  CYP induction in vitro (human hepatocytes): No
[3]; CYP3A4, HepaRG cells
  Induction in vitro: No
  Prediction in vivo inducer: No
[3]; Lab 1, batch 20
  Assigned classification CYP3A4: 0
[3]; Lab 1, batch 35
  Assigned classification CYP3A4: 0
[3]; Lab 1, batch 36
  Assigned classification CYP3A4: 0
[3]; Lab 2, batch 20
  Assigned classification CYP3A4: 0
[3]; Lab 2, batch 35
  Assigned classification CYP3A4: 0
[3]; Lab 2, batch 36
  Assigned classification CYP3A4: 0
[3]; Lab 3, batch 20
  Assigned classification CYP3A4: 0
[3]; Lab 3, batch 35
  Assigned classification CYP3A4: 0
[3]; Lab 3, batch 36
  Assigned classification CYP3A4: 0
[4]
  Prediction in vivo inducer: No
  Induction in vitro: No
[4]; Lab 1, batch 0 6 A
  Assigned classification CYP1A2: 0
[4]; Lab 1, batch 4 0 8
  Assigned classification CYP1A2: 0
[4]; Lab 1, batch 8 0 8
  Assigned classification CYP1A2: 0
[4]; Lab 2, batch 0 6 A
  Assigned classification CYP1A2: 0
[4]; Lab 2, batch 4 0 8
  Assigned classification CYP1A2: 0
[4]; Lab 2, batch 8 0 8
  Assigned classification CYP1A2: 0
[4]; Lab 3, batch 0 6 A
  Assigned classification CYP1A2: 0
[4]; Lab 3, batch 4 0 8
  Assigned classification CYP1A2: 0
[4]; Lab 3, batch 8 0 8
  Assigned classification CYP1A2: 0
[5]; CYP1A2, HepaRG cells
  Prediction in vivo inducer: No
  Induction in vitro: No
[5]; Lab 1, batch 20
  Assigned classification CYP1A2: 0
[5]; Lab 1, batch 35
  Assigned classification CYP1A2: 0
[5]; Lab 1, batch 36
  Assigned classification CYP1A2: 0
[5]; Lab 2, batch 20
  Assigned classification CYP1A2: 0
[5]; Lab 2, batch 35
  Assigned classification CYP1A2: 0
[5]; Lab 2, batch 36
  Assigned classification CYP1A2: 0
[5]; Lab 3, batch 20
  Assigned classification CYP1A2: 1
[5]; Lab 3, batch 35
  Assigned classification CYP1A2: 0
[5]; Lab 3, batch 36
  Assigned classification CYP1A2: 0
[6]
  Induction in vivo: No
[7]
  Induction in vivo: No
[8]; CYP2B6, HepaRG cells, listed as Sotalol
  Prediction in vivo inducer: No
[8]; CYP2B6, HepaRG cells, listed as sotalol
  Prediction in vivo inducer: correctly predicted
[8]; CYP2B6, HepaRG cells
  Induction in vitro: No
[8]; Lab 1, batch 20
  Assigned classification CYP2B6: 0
[8]; Lab 1, batch 35
  Assigned classification CYP2B6: 0
[8]; Lab 1, batch 36
  Assigned classification CYP2B6: 0
[8]; Lab 2, batch 20
  Assigned classification CYP2B6: 0
[8]; Lab 2, batch 35
  Assigned classification CYP2B6: 0
[8]; Lab 2, batch 36
  Assigned classification CYP2B6: 0
[8]; Lab 3, batch 20
  Assigned classification CYP2B6: 0
[8]; Lab 3, batch 35
  Assigned classification CYP2B6: 0
[8]; Lab 3, batch 36
  Assigned classification CYP2B6: 0
[9]; [13]
  Cmax: 2 µM
[9]; [14]
  Cmax: 2 µM
[10]; [15]
  Induction in vivo: No
[10]; CYP2B6, human, ref Table 1
  Induction in vivo: No
[11]; CYP2B6, PHH
  Induction in vitro: No
  Prediction in vivo inducer: No
[11]; [16]
  Prediction in vivo inducer: negative
[11]; Lab 1, batch 0 6 A
  Assigned classification CYP2B6: 0
[11]; Lab 1, batch 4 0 8
  Assigned classification CYP2B6: 0
[11]; Lab 1, batch 8 0 8
  Assigned classification CYP2B6: 0
[11]; Lab 2, batch 0 6 A
  Assigned classification CYP2B6: 0
[11]; Lab 2, batch 4 0 8
  Assigned classification CYP2B6: 0
[11]; Lab 2, batch 8 0 8
  Assigned classification CYP2B6: 0
[11]; Lab 3, batch 0 6 A
  Assigned classification CYP2B6: 1
[11]; Lab 3, batch 4 0 8
  Assigned classification CYP2B6: 0
[11]; Lab 3, batch 8 0 8
  Assigned classification CYP2B6: 0
